Reference: patent US8802826B2, “Anti-clusterin antibodies and antigen binding fragments and their use to reduce tumor volume” (Alethia Biotherapeutics Inc., priority 2009, dated 2014)

Legend:
[1] = test system: EMT6 cells; experiment: wound healing (scratch) migration assay; type: cell-based, mouse; conditions: for activity in the scratch assay relative to the other antibodies: comparison between 16B5 configurations
Description: FIG. 4. h16B5 blocks the migration of cancer cell lines.
To test the activity of anti-clusterin antibodies against cancer cell migration, a standard wound healing, or scratch assay, was used. In this assay, EMT6 cells, a mouse mammary carcinoma cell line, was plated at high density and subjected to wounding by the creation of a scratch in the cell layer. At time 0, a wide denuded area is evident that quickly fills up after incubation of the cells at 37 C for 15 h (see upper left-hand panels in FIG. 4).

[2] = test system: DU145 cells; experiment: growth in Matrigel, DU145; type: cell-based, human; conditions: 8 μg/mL, up to 3 weeks
Description: FIG. 5. Inhibition of h16B5 reduces the invasiveness of human prostate cancer cells. The bottom of 12-well plates was covered with 200 μL Growth factor reduced matrigel (Becton Dickinson). Cells (2.5×10^4) were resuspended in 200 μL matrigel, which was layered on top of this, and finally 500 μL of cell specific growth medium was added on top of the matrigel. h16B5 was added to every layer of matrigel as well as the medium in a concentration of 8 μg/mL. Plates were incubated at 37° C. for up to 3 weeks during which the growth medium (+/−h16B5) was replenished weekly. The arrows indicate the areas of epithelial-like cells.
We then determined whether other cell lines such as the human prostate PC3 and DU145 cell lines, which secrete various levels of endogenous clusterin, could be affected in their invasive behavior and growth by the h16B5.

[3] = test system: PANC-1 cells; experiment: Transwell Matrigel migration of TGFβ-stimulated pancreatic cancer cells; type: cell-based, human; conditions: 24 h incubation
Description: FIG. 12. H16B5 inhibits the migration of pancreatic cancer cell lines. PANC-1 cells were seeded in serum-free medium in the upper chamber of a 24-well Transwell plate containing a Matrigel barrier. The lower wells were filled with medium containing 10% FBS as a chemo-attractant. After a 24 h incubation in the presence or absence of TGFβ and/or h16B5 (as indicated), the number of cells in the Matrigel layer were stained and counted.
(§1) Tumors derived from 4 different human pancreatic cell lines were obtained which were fixed in formalin, embedded in paraffin, and section on glass slides. Immunohistochemistry was conducted with h16B5 antibody to determine if tumors derived from this cancer indication expressed clusterin. The tumors were derived from Aspc-1, BxPC-3, PANC-1, and MiaPaCa-2 all of which were derived from pancreatic cancer patients (ATCC, Manassas, Va.). Paraffin-embedded epithelial pancreatic tumor samples were placed on glass slides and fixed for 15 min at 50° C. Deparaffinization was conducted by treating 2× with xylene followed by dehydration in successive 5 min washes in 100%, 80%, and 70% ethanol. The slides were washed 2× in PBS for 5 min and treated with antigen retrieval solution (citrate-EDTA) to unmask the antigen. […] H16B5-reactive clusterin was detected by incubating with biotin-conjugated human anti-kappa followed by streptavidin-HRP tertiary antibody. […]

[4] = test system: PC-3 prostate cancer cells; experiment: PC-3 prostate tumor xenograft; type: in vivo, SCID mice
Description: PC-3 prostate cancer cells (2×10^6) were implanted s.c. into SCID mice and allowed to grow until the tumor sizes were approximately 100 mm^3. Tumors were measured bi-weekly with a digital caliper and tumor volumes were calculated as L×W×H. Each group contained 8 animals that were randomized prior to the beginning off the treatments. The results were expressed as mm^3±SEM.
A second prostate cancer model study was conducted in a different tumor model by implanting PC-3 prostate cancer cells. PC-3 cells are also hormone-insensitive but are documented as being slightly more invasive than the DU145 cells. As was described above, the cells were implanted sub-cutaneously in SCID mice and treatments were initiated when the tumors reached a volume of approximately 100 mm^3 (designated day 1). The h16B5 injections were administered i.p. on day 1 at 5 mg/kg and continued twice per week thereafter whereas a single TxT injection at 10 mg/kg was administered i.p. on day 5.

[5] = target: T1, murine clusterin (Mus musculus, UniProt Q06890); experiment: immunohistochemistry on frozen sections of 4T1 mouse mammary tumors; type: binding; conditions: 5 μg/ml, 1 h
T1 construct: murine clusterin that was expressed in BR1-JM01 cells; endogenous in cells; host or cells: BR1-JM01 mouse mammary carcinoma cells
Description: FIG. 16. […] The experiment was performed using immunohistochemistry and detection was accomplished using a HRP-conjugated secondary antibody.
Briefly, the frozen sections were fixed with ice-cold acetone for 10 minutes and non-specific binding was blocked with a reagent supplied in a commercially available kit (Dako Canada, Inc., Burlington, ON). H16B5 was incubated with the mouse tumor section for 1 h at a concentration of 5 μg/ml. […] A control sample was processed in an identical manner with a human isotype control IgG.

[6] = target: T1, murine clusterin; experiment: immunofluorescence on BR1-JM01 cells; type: binding
[7] = target: T2, clusterin (Homo sapiens, UniProt P10909); experiment: immunohistochemistry on tumors derived from human pancreatic cancer cell lines; type: binding; conditions: 5 μg/ml, 1 h at room temperature
T2 construct: from tissue; host or cells: formalin-fixed, paraffin-embedded xenograft tumours of Aspc-1, BxPC-3, PANC-1 and MiaPaCa-2 cells grown in SCID mice
Description: FIG. 11. Clusterin is expressed in human pancreatic tumors. Tumors derived from pancreatic cancer cell lines (as indicated) were grown in SCID mice, harvested, fixed in formalin, sections and examined using immunohistochemistry with h16B5. Positive staining was visualized by standard methods using a HRP-conjugated secondary antibody. The negative control was performed under identical conditions with an isotype control antibody.
as §1

T1 sequence (Q06890 22-448): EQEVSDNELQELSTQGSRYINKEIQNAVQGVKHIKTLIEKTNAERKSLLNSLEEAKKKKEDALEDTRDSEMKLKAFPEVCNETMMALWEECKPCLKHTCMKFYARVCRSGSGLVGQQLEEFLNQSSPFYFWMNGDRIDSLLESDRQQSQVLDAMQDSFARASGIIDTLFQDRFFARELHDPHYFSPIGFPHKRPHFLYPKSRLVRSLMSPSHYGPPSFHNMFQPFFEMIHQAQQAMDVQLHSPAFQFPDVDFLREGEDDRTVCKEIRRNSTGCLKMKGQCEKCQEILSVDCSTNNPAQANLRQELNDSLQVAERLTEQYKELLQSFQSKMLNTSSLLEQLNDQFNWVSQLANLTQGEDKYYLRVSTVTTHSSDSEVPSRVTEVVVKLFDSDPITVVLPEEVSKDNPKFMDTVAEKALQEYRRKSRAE
T2 sequence (P10909 23-449): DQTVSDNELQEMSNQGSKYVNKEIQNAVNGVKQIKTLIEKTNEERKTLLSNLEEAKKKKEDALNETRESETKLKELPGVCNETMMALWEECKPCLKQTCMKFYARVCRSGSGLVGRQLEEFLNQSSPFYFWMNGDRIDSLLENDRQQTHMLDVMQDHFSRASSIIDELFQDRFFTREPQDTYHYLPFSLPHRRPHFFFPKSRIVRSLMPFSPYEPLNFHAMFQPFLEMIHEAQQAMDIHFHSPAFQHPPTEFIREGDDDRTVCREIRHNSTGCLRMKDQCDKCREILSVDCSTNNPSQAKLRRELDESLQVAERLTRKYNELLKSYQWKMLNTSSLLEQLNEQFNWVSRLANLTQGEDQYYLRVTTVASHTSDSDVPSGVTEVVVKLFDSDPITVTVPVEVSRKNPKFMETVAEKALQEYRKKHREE

“h16B5: humanized anti-clusterin IgG2 antibody, heavy chain SEQ ID NO.:9 and light chain SEQ ID NO.:10” was tested, and the “migration of cells into the denuded area” value ([1]; 37 C for 15 h) was “blockage of migration”, the “activity in the scratch assay relative to the other antibodies” value [1] was “at least as active as the mouse 16B6” and the “activity in the scratch assay relative to the other antibodies” value ([1]; listed as humanized 16B5) was “most effective inhibitor”. For the same substance, the “sphere-like structures in Matrigel” value [2] was “smaller and fewer in number”, the “migration of TGFβ-stimulated cells into the Matrigel” value [3] was “severely inhibited” and the “increase in overall survival” value ([4]; 5 mg/kg i.p. twice per week) was 47%. For the same substance, the mice remaining alive ([4]; day 43 (no remaining animals in the control group)) was “greater than 60%”, the “reduction in average tumor size compared to the control group” value ([4]; day 43, 5 mg/kg i.p. twice per week) was 37% and the “survival of the animals” value ([4]; h16B5 in combination with TxT) was “extended the survival”. The “detection of murine clusterin in 4T1 tumors” value [5] was “detected murine clusterin”, the “detection of murine clusterin expressed in BR1-JM01 cells” value [6] was “detected murine clusterin” and the “staining for clusterin expression in Aspc-1, BxPC-3, PANC-1 and MiaPaCa-2 derived tumors” value [7] was “stained positive”.
